The numbers were not newly measured in patent publication US20070253988A1, “Methods for peeling skin” (L'OREAL, priority 2006, published 2007), which cites them from elsewhere.

For the data set the following is noted: approximately 20° C., concentration of 0.1 M.

`NC(=O)CNCCS(=O)(=O)O` [N-(2-acetamido)-2-aminoethanesulfonic acid]: the pKa was 6.88.

Turning to `O=S(=O)(O)CCN(CCO)CCO` [N,N-bis[2-hydroxyethyl]-2-aminoethanesulfonic acid], the pKa is 7.17.

With `O=S(=O)(O)CCN1CCN(CCS(=O)(=O)O)CC1` [piperazine-N,N′-bis[2-ethanesulfonic]acid], the pKa is recorded as 6.82.

Consider `O=S(=O)(O)CCN1CCN(CCO)CC1` [N-2-hydroxyethylpiperazine-N′-2-ethanesulfonic acid], for which the pKa is 7.55.
